Measurements published in patent US6403607B1, “Sulfonamide derivatives and drugs containing the same as the active ingredient” (priority 1998, dated 2002).
≈ marks a conversion by molar mass, not a printed value. Like-named read-outs stand apart in the source and are kept apart here.

Legend:
[1] = test system: ethanol ulcer in the gland gastric region; assay: Ethanol ulcer; format: in vivo; conditions: rats fasted 24 hours, drug oral, 99.5% ethanol 1 ml/rat after one hour, size of ulcer one hour later; for Suppression: dose not given
Description: Ethanol Ulcer Rats were fasted for 24 hours and orally administered with a drug. After one hour, 99.5% ethanol (1 ml/rat) was fed through oral administration. After one hour of ethanol administration, the abdomens of the rats were dissected and the size of ulcer in the gland gastric region was measured for each rat.

Helicobacter pylori = assay: Anti-Helicobacter-pylori action (agar plate dilution MIC); format: cell-based; conditions: clinically isolated 10 bacterial strains, agar plate dilution method
Description: Anti-Helicobacter-pylori Action
Using clinically isolated 10 bacterial strains, the minimum inhibitory concentration (MIC) was measured according to the agar plate dilution method.

[2] = test system: HCl-ethanol ulcer in the gland gastric region; assay: HCl-ethanol ulcer; format: in vivo, Rats
Description: HCl-ethanol Ulcer Rats were fasted for 24 hours and orally administered with a drug. After one hour, 60% ethanol containing 0.15 N hydrochloric acid (1 ml/rat) was perorally administered to each rat. One hour after ethanol administration, the size of ulcer in the gland gastric region was measured for evaluation of anti-ulcer effects of the drug.

[3] = Helicobacter pylori, read-out: MIC
[4] = rats fasted 24 hours, drug oral, 60% ethanol containing 0.15 N hydrochloric acid 1 ml/rat after one hour, size of ulcer one hour later, dose not given

Structure (SMILES) | Suppression [1] | MIC (Helicobacter pylori) | further results
O=S(=O)(c1ccc(Cl)cc1)N(CCN1CCCC1)c1ccccc1NCCOc1ccc(Cl)cc1 [Example 8, N-(4-Chlorobenzenesulfonyl)-N-[2-(1-pyrolidino)ethyl]-N′-[2-(4-chlorophenoxy)ethyl]-o-phenylenediamine] | 86% | 1.56 to 6.25 µg/mL | 
O=S(=O)(c1ccc(Cl)cc1)N(CCO)c1ccccc1NCCOc1ccc(Cl)cc1 [Example 9, N-(4-Chlorobenzenesulfonyl)-N-(2-hydroxyethyl]-N′-[2-(4-chlorophenoxy)ethyl]-o-phenylenediamine] | 85% |  | MIC (Helicobacter pylori; [3]): 25 to 50 µg/mL (≈ 51.9 to 104 µM)
O=S(=O)(c1ccc(Cl)cc1)N(CCCc1ccncc1)c1ccccc1NCCOc1ccc(Cl)cc1 [Example 10, N-(4-Chlorobenzenesulfonyl)-N-[3-(4-pyridyl)propyl]-N′-[2-(4-chlorophenoxy)ethyl]-o-phenylenediamine] | 82% |  | MIC (Helicobacter pylori; [3]): 25 to 100 µg/mL (≈ 44.9 to 180 µM)
COc1ccc(S(=O)(=O)N(CCN)c2ccccc2NCCOc2ccc(Cl)cc2)cc1 [Example 11, N-(2-Aminoethyl)-N-(4-methoxybenzenesulfonyl)-N′-[2-(4-chlorophenoxy)ethyl]-o-phenylenediamine] | 96% |  | 
CNC(=NC#N)NCCOCCN(c1ccccc1NCCOc1ccc(Cl)cc1)S(=O)(=O)c1ccc(Cl)cc1 [Example 14, N-(4-Chlorobenzenesulfonyl)-N-[2-(2-cyano-3-methylguanidino)ethoxyethyl]-N′-[2-(4-chlorophenoxy)ethyl]-o-phenylenediamine] |  |  | MIC (Helicobacter pylori; [3]): 6.25 to 50 µg/mL (≈ 10.3 to 82.6 µM)
O=C(NCCOCCN(c1ccccc1NCCOc1ccc(Cl)cc1)S(=O)(=O)c1ccc(Cl)cc1)NC1CCCCC1 [Example 17, N-(4-Chlorobenzenesulfonyl)-N-[2-(2-cyclohexylureido)ethoxyethyl]-N′-[2-(4-chlorophenoxy)ethyl]-o-phenylenediamine] |  | 25 to 50 µg/mL | 
NCCOCCN(c1ccccc1NCCOc1ccc(Cl)cc1)S(=O)(=O)c1ccccc1 [Example 33] | 83% |  | 
Cc1ccc(S(=O)(=O)N(CCOCCN)c2ccccc2NCCOc2ccc(Cl)cc2)cc1 [Example 35, N-[2-(2-Amino)ethoxyethyl]-N-(p-toluenesulfonyl)-N′-[2-(4-chlorophenoxy)ethyl]-o-phenylenediamine] | 99% |  | 
Cc1ccc(S(=O)(=O)N(CCN(C)C)c2ccccc2NCCOc2ccc(Cl)cc2)cc1.Cl [Example 36, N-[2-(Dimethylamino)ethyl]-N-(p-toluenesulfonyl)-N′-[2-(4-chlorophenoxy)ethyl]-o-phenylenediamine Hydrochloride] |  |  | Suppression [2, 4]: 92%
CN(C)CCN(c1ccccc1NCCOc1ccc(Cl)cc1)S(=O)(=O)c1cccc2ccccc12.Cl [Example 38, N-[2-(Dimethylamino)ethyl]-N-(1-naphthalenesulfonyl)-N′-[2-(4-chlorophenoxy)ethyl]-o-phenylenediamine Hydrochloride] |  |  | Suppression [2, 4]: 93%
NCCOCCN(c1ccccc1NCCOc1ccc(Cl)cc1)S(=O)(=O)c1ccc(F)cc1 [Example 41, N-[2-(2-Amino)ethoxyethyl]-N-(4-fluorobenzenesulfonyl)-N′-[2-(4-chlorophenoxy)ethyl]-o-phenylenediamine] | 93% |  | 
CN(C)CCN(c1ccccc1NCCOc1ccc(Cl)cc1)S(=O)(=O)c1ccc(Br)cc1.Cl [Example 44, N-[2-(Dimethylamino)ethyl]-N-(4-bromobenzenesulfonyl)-N′-[2-(4-chlorophenoxy)ethyl]-o-phenylenediamine.HCl] |  |  | Suppression ([2]; rat, in vivo, po): 87%
NCCOCCN(c1ccccc1NCCOc1ccc(F)cc1)S(=O)(=O)c1ccc(Cl)cc1 [Example 47, N-[2-(2-Amino)ethoxyethyl]-N-(4-chlorobenzenesulfonyl)-N′-[2-(4-fluorophenoxy)ethyl]-o-phenylenediamine] | 100% |  | 
CN(C)CCN(c1ccccc1NCCOc1ccc(F)cc1)S(=O)(=O)c1ccc(Cl)cc1.Cl [Example 48, N-[2-(Dimethylamino)ethyl]-N-(4-chlorobenzenesulfonyl)-N′-[2-(4-fluorophenoxy)ethyl]-o-phenylenediamine Hydrochloride] |  |  | Suppression [2, 4]: 85%
CN(C)CCN(c1ccccc1NCCOc1ccc(Cl)cc1)S(=O)(=O)c1cccc(Cl)c1.Cl [Example 52, N-[2-(Dimethylamino)ethyl]-N-(3-chlorobenzenesulfonyl)-N′-[2-(4-chlorophenoxy)ethyl]-o-phenylenediamine Hydrochloride] |  |  | Suppression [2, 4]: 87%
Cc1ccc(OCCNc2ccccc2N(CCN(C)C)S(=O)(=O)c2ccc(Cl)cc2)cc1.Cl [Example 53, N-[2-(Dimethylamino)ethyl]-N-(4-chlorobenzenesulfonyl)-N′-[2-(4-methylphenoxy)ethyl]-o-phenylenediamine Hydrochloride] |  |  | Suppression [2, 4]: 92%

Structure (SMILES) | Suppression [1] | MIC (Helicobacter pylori) | further results
CN(C)CCN(c1ccccc1NCCOc1ccc(Br)cc1)S(=O)(=O)c1ccc(Cl)cc1.Cl [Example 54, N-[2-(Dimethylamino)ethyl]-N-(4-chlorobenzenesulfonyl)-N′-[2-(4-bromophenoxy)ethyl]-o-phenylenediamine Hydrochloride] |  |  | Suppression [2, 4]: 77%
NCCN(c1ccccc1NCCNc1ccc(Cl)cc1)S(=O)(=O)c1ccc(Cl)cc1 [Example 60, N-(2-Aminoethyl)-N-(4-chlorobenzenesulfonyl)-N′-[2-(4-chlorophenylamino)ethyl]-o-phenylenediamine] |  |  | MIC (Helicobacter pylori; [3]): 6.25 to 25 µg/mL (≈ 13 to 52.1 µM)
NCCN(c1ccccc1NCC=Cc1ccc(Cl)cc1)S(=O)(=O)c1ccc(Cl)cc1 [Example 62, N-(2-Aminoethyl)-N-(4-chlorobenzenesulfonyl)-N′-(4-chlorocinnamyl)-o-phenylenediamine] |  |  | MIC (Helicobacter pylori; [3]): 1.56 to 12.5 µg/mL (≈ 3.27 to 26.2 µM)
NCCN(c1ccccc1NCCSc1ccc(Cl)cc1)S(=O)(=O)c1ccc(Cl)cc1 [Example 65, N-(2-Aminoethyl)-N-(4-chlorobenzenesulfonyl)-N′-[2-(4-Chlorophenylthio)ethyl]-o-phenylenediamine] |  |  | MIC (Helicobacter pylori; [3]): 6.25 to 25 µg/mL (≈ 12.6 to 50.4 µM)
O=S(=O)(Nc1cccnc1NCCNc1ccc(Cl)cc1)c1ccc(Cl)cc1 [Example 77] |  | 6.25 to 12.5 µg/mL | 
NCCN(c1cccnc1N1CCN(c2ccc(Cl)cc2)C(=O)C1=O)S(=O)(=O)c1ccc(Cl)cc1 [Example 92, 3-[N-(4-Chlorobenzenesulfonyl)-N-(2-aminoethyl)]amino-2-[4-(4-chlorophenyl)-2,3-dioxo-1-piperadino]pyridine] |  | >100 µg/mL | 
O=S(=O)(c1ccc(Cl)cc1)N(CCN1CCNCC1)c1cccnc1NCCNc1ccc(Cl)cc1 [Example 97, 3-[N-(4-Chlorobenzenesulfonyl)-N-[2-(1-piperazinyl)ethyl]]amino-2-[2-(4-chlorophenyl)aminoethyl]aminopyridine] | 81% | 25 to 100 µg/mL | 
NCCN(c1cccnc1NCCOc1ccc(Cl)cc1)S(=O)(=O)c1ccc(Cl)cc1 [Example 106, 2-[2-(4-Chlorophenoxy)ethyl]amino-3-[N-(2-aminoethyl)-N-(4-chlorobenzenesulfonyl)]aminopyridine] | 98% |  | ED50 [1]: 8.4 mg/kg
NCCN(c1cccnc1NCCN(c1ccc(Cl)cc1)S(=O)(=O)c1ccc(Cl)cc1)S(=O)(=O)c1ccc(Cl)cc1 [Example 111, 2-[2-[N-(4-Chlorophenyl)-N-(4-chlorobenzenesulfonyl)]aminoethyl]amino-3-[N-(2-aminoethyl)-N-(4-chlorobenzenesulfonyl)]aminopyridine] | 100% | 25 µg/mL (≈ 38.2 µM) | 
COc1ccc(NCCNc2ncccc2N(CCN)S(=O)(=O)c2ccc(OC)cc2)cc1 [Example 112, 3-[N-(2-Aminoethyl)-N-(4-methoxybenzenesulfonyl)]amino-2-[2-(4-methoxyphenyl)aminoethyl]aminopyridine] |  | 12.5 to 50 µg/mL | 
NCCN(c1cccnc1OCCNc1ccc(Cl)cc1)S(=O)(=O)c1ccc(Cl)cc1 [Example 113, 2-[2-(4-Chlorophenyl)aminoethoxy]-3-[N-(2-aminoethyl)-N-(4-chlorobenzenesulfonyl)]aminopyridine] | 87% | 25 to 50 µg/mL | 
Cc1ccc(NCCNc2ncccc2N(CCN)S(=O)(=O)c2ccc(C)cc2)cc1 [Example 114, 3-[N-(2-Aminoethyl)-N-(p-toluenesulfonyl)]amino-2-[2-(p-tolyl)aminoethyl]aminopyridine] |  | 12.5 to 25 µg/mL | 
CCN(CCNc1ncccc1N(CCN)S(=O)(=O)c1ccc(Cl)cc1)c1ccc(Cl)cc1 [Example 116, 2-[2-[N-(4-Chlorophenyl)-N-ethyl]aminoethyl]amino-3-[N-(2-aminoethyl)-N-(4-chlorobenzenesulfonyl)]aminopyridine] | 99% | 6.25 to 12.5 µg/mL | 
NCCN(c1ccccc1OCCNc1ccc(Cl)cc1)S(=O)(=O)c1ccc(Cl)cc1 [Example 122, 1-[2-(4-Chlorophenyl)aminoethoxy]-2-[N-(2-aminoethyl)-N-(4-chlorobenzenesulfonyl)]aminobenzene] | 99% | 12.5 to 25 µg/mL | 
NCCN(c1cccnc1N1CCN(c2ccc(Cl)cc2)CC1)S(=O)(=O)c1ccc(Cl)cc1 [Example 136, 2-[4-(4-Chlorophenyl)-1-piperazino]-3-[N-(2-aminoethyl)-N-(4-chlorobenzenesulfonyl)]aminopyridine] | 80% | 3.13 to 12.5 µg/mL | 
CN(C)CCN(c1cccnc1N1CCN(c2ccc(Cl)cc2)CC1)S(=O)(=O)c1ccc(Cl)cc1 [Example 138, 2-[4-(4-Chlorophenyl)-1-piperazino]-3-[N-(2-dimethylaminoethyl)-N-(4-chlorobenzenesulfonyl)]aminopyridine] |  | 3.13 to 12.5 µg/mL | 
